As a reminder, the EC50 is the concentration that produces a half-maximal response.

This is an account of results in patent US20230286973A1, “PROTEIN SECRETION INHIBITORS” (KEZAR LIFE SCIENCES, priority 2020, published 2023).

The test system of data set [1] is TNFα-FL/Gaussia Luciferase. Nature of the data set: Dox Induced TNFα-FL-Gluc Assay. It is filed as cell-based. The conditions noted are these: for IC50: 24 hr Dox induction, 293FRT/TO cells, read-out: 24 hr Dox Inducible TNFaFLGluc 293FRT/TO: Mean IC50; for 24 hr Dox Inducible TNFaFLGluc 293FRT/TO: TNF/PD1: ratio of TNFaFLGluc IC50 to PD1ssGluc IC50. The method, boiled down: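 Hygromycin/blasticidin-selected Flp-In 293 T-REx cells, TNFα-FL/Gaussia luciferase fusion under T-REx control; overnight plating, then compound in DMSO/media with doxycycline at 37 °C, 5% CO2; stereo-undefined structures tested as mixtures.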

Data set [2] can be described thus: Liver Microsome Stability Assay (monkey). The conditions noted are these: monkey liver microsomes, with NADPH, 1.0 uM compound. (Liver microsomes are vesicles of endoplasmic reticulum, rich in cytochrome P450 enzymes.)
Protocol: (§1) Stability of a compound was assessed in the presence of liver microsomes from various sources—mouse, rat, monkey and human liver microsomes. 1.0 uM compound, 0.4% DMSO in 0.1 M Potassium Phosphate with 1.0 mg/mL liver microsomes, were incubated at 37° C. with or without 1 mM NADPH. The samples were quenched at 0, and 30 minutes.
Data set [3] concerns multiple myeloma cell line NCI-H929. Nature of the data set: H929 Cell Viability Assay. As to conditions: NCI-H929 cells, Celltiter-Glo. The format is cell-based, human. In short, it runs like this:
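A 48-hour compound treatment of cells in 10% FBS RPMI medium was followed by luciferase-based viability quantification.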
A general note: In ATP-based viability assays light output follows the ATP content of the culture.

Data set [4] deals with HER3-ss+4aa/Gaussia Luciferase. The experiment in a line: Dox-Induced Her3-ss-Gluc Assay. It is filed as cell-based. As to conditions: 24 hr Dox induction; 293FRT/TO cells; read-out: 24 hr Dox Inducible Her3(ss + 4)Gluc 293FRT/TO: Mean IC50. In short, it runs like this: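 Doxycycline-inducible HER3 signal sequence+4aa/Gaussia luciferase construct, stably integrated in Flp-In 293 T-REx cells; compound dilutions applied with doxycycline at 37° C., 5% CO2.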

Data set [5] deals with PD1-ss+10aa/Gaussia Luciferase. Nature of the data set: Dox-Induced PD1-ss-Gluc Assay. It is filed as cell-based. As to conditions: 24 hr Dox induction; 293FRT/TO cells; read-out: 24 hr Dox Inducible PD1ssGluc 293FRT/TO: Mean IC50. In short, it runs like this:
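Compounds were added in DMSO/media with doxycycline and incubated at 37 °C, 5% CO2, on 293 T-REx cells plated one day earlier. These cells stably express, under tetracycline-regulated control, a Gaussia luciferase fused to the PD1 signal peptide plus 10 residues. Structures drawn without stereochemistry were tested as stereoisomer mixtures.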

The nature of data set [6]: Liver Microsome Stability Assay (human). The conditions noted are these: human liver microsomes, with NADPH, 1.0 uM compound.
Protocol: as §1
A short description of data set [7]: Liver Microsome Stability Assay (rat). The conditions noted are these: rat liver microsomes, with NADPH, 1.0 uM compound.
Protocol: as §1
A short description of data set [8]: Liver Microsome Stability Assay (mouse). As to conditions: mouse liver microsomes, with NADPH, 1.0 uM compound.
Protocol: as §1
Data set [9] has as its system IL-2-FL/Gaussia Luciferase. The experiment in a line: Dox Induced IL2-FL-Gluc Assay. The format is cell-based. As to conditions: for IC50: 24 hr Dox induction, 293FRT/TO cells, read-out: 24 hr Dox Inducible IL2FLGluc 293FRT/TO: Mean IC50; for 24 hr Dox Inducible IL2FLGluc 293FRT/TO: IL2/PD1: ratio of IL2FLGluc IC50 to PD1ssGluc IC50. In short, it runs like this:
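A hygromycin- and blasticidin-resistant 293 T-REx clone carrying inducible IL-2–Gaussia luciferase (full-length IL-2, residues 1-153) serves as the cell system. After overnight plating, the cells get test compounds together with doxycycline in DMSO/media and are incubated at 37° C, 5% CO2.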

Data set [10] has as its system multiple myeloma cell line U266B1. Nature of the data set: U266 Cell Viability Assay. It is filed as cell-based, human. As to conditions: U266B1 cells, Celltiter-Glo. The method, boiled down:
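After growth in serum-supplemented RPMI 1640, cells received serially diluted compound in DMSO/media and were kept 48 hours before a CellTiter-Glo luminescence readout.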

Where “and” joins values, the source holds several entries; their conditions need not be identical. Identical values can stand only once.

On to `O=C(Nc1nc([C@H]2CCCN2c2ccc(OC3CCS(=O)(=O)CC3)cc2)cs1)c1cccn1Cc1ccnc(F)c1` [Compound A138, (R)-N-(4-(1-(4-((1,1-dioxidotetrahydro-2H-thiopyran-4-yl)oxy)phenyl)pyrrolidin-2-yl)thiazol-2-yl)-1-((2-fluoropyridin-4-yl)methyl)-1H-pyrrole-2-carboxamide], for which the IC50 in data set [1] was found to be 1600 nM; in data set [4], 167 nM; in [5] it was 125 nM; in data set [9], 172 nM. In addition, the “24 hr Dox Inducible TNFaFLGluc 293FRT/TO: TNF/PD1” value in data set [1] is recorded as 12.8. Besides, in data set [2], the “Liver Microsome Stability (Multiple Species): Monkey - % Remaining after 30 min w/NADPH” value is reported as 6.25%. The concentration giving a half-maximal response (EC50) in data set [3] (Homo sapiens, NCI-H929, 48 h) was 2570 nM; in data set [10] (Homo sapiens, U-266, 48 h) it was > 25000 nM. Besides, the “Liver Microsome Stability (Multiple Species): Human - % Remaining after 30 min w/NADPH” value in data set [6] stood at 25.1%. Further, the “Liver Microsome Stability (Multiple Species): Rat - % Remaining after 30 min w/NADPH” value in data set [7] stood at 37.2%. Besides, in data set [8], the “Liver Microsome Stability (Multiple Species): Mouse - % Remaining after 30 min w/NADPH” value was 25.2%. Moreover, the “24 hr Dox Inducible IL2FLGluc 293FRT/TO: IL2/PD1” value in data set [9] amounted to 1.4.
On to `O=C(Nc1nc([C@H]2CCCN2c2ccc(C(F)(F)F)cc2)cs1)c1cccn1Cc1ccnc(F)c1` [Compound A56, (R)-1-((2-fluoropyridin-4-yl)methyl)-N-(4-(1-(4-(trifluoromethyl)phenyl)pyrrolidin-2-yl)thiazol-2-yl)-1H-pyrrole-2-carboxamide], for which the IC50 in [1] was 111 nM and 63.2 nM and 96.9 nM; in data set [4], 9.54 nM and 8.51 nM and 7.39 nM; in data set [5], 5.8 nM and 4.66 nM and 4.85 nM; in [9] it was 10.4 nM and 6.77 nM and 8.74 nM. In addition, the “24 hr Dox Inducible TNFaFLGluc 293FRT/TO: TNF/PD1” value in [1] was 19.1 and 13.6 and 20. Moreover, the “Liver Microsome Stability (Multiple Species): Monkey - % Remaining after 30 min w/NADPH” value in data set [2] was 27.3% and 25.8%. In addition, the EC50 in data set [3] (Homo sapiens, NCI-H929, 48 h) is 152 nM; in [3] (48 hr), 149 nM and 165 nM; in [10] (Homo sapiens, U-266, 48 h), > 25000 nM; in data set [10] (48 hr) it was > 24800 nM. In data set [6], the “Liver Microsome Stability (Multiple Species): Human - % Remaining after 30 min w/NADPH” value is 43.9% and 46%. Moreover, the “Liver Microsome Stability (Multiple Species): Rat - % Remaining after 30 min w/NADPH” value in data set [7] was 48.3% and 54.8%. Moreover, the “Liver Microsome Stability (Multiple Species): Mouse - % Remaining after 30 min w/NADPH” value in data set [8] is 81.1% and 81.8%. Moreover, the “24 hr Dox Inducible IL2FLGluc 293FRT/TO: IL2/PD1” value in [9] is 1.8 and 1.5.
As to `O=C(Nc1ccc(N2CCC[C@@H]2c2csc(NC(=O)c3cccn3Cc3ccnc(F)c3)n2)cc1)OC1CNC1` [Compound A178, azetidin-3-yl (R)-(4-(2-(2-(1-((2-fluoropyridin-4-yl)methyl)-1H-pyrrole-2-carboxamido)thiazol-4-yl)pyrrolidin-1-yl)phenyl)carbamate], the IC50 in data set [1] was found to be 931 nM; in data set [4], 76.3 nM; in data set [5] it was 23.9 nM; in data set [9] it was 107 nM. Further, the “24 hr Dox Inducible TNFaFLGluc 293FRT/TO: TNF/PD1” value in data set [1] is on record as 39. The “Liver Microsome Stability (Multiple Species): Monkey - % Remaining after 30 min w/NADPH” value in data set [2] is recorded as 70.8%. In addition, the half-maximal effective concentration (EC50) turned out to be 525 nM in data set [3] (Homo sapiens, NCI-H929, 48 h) and 7400 nM in data set [10] (Homo sapiens, U-266, 48 h). Also, in [6], the “Liver Microsome Stability (Multiple Species): Human - % Remaining after 30 min w/NADPH” value was determined as 72.8%. Further, the “Liver Microsome Stability (Multiple Species): Rat - % Remaining after 30 min w/NADPH” value in [7] was 51.4%. For the same molecule, the “Liver Microsome Stability (Multiple Species): Mouse - % Remaining after 30 min w/NADPH” value in [8] is recorded as 70.6%. The “24 hr Dox Inducible IL2FLGluc 293FRT/TO: IL2/PD1” value in data set [9] turned out to be 4.5.
